# pIC50: −log10 of the molar value.
# Columns and labels:
# [1] = tested on: Low density lipoprotein of human (human LDL); experiment: Inhibitory effect against lipid peroxidation induced by copper (LDL oxidation, MDA); format: biochemical; details: CuSO4 10 μM, 37° C. 18 hours
# Protocol: Low density lipoprotein of human (human LDL, sigma) was dissolved in water to be final concentration of 1 mg/ml. To remove EDTA (ethylenediamine tetraacetate), the aqueous solution was dialyzed in phosphate buffer at 4° C. for 18 hours. At this dialysis, phosphate buffer was changed three times. Phosphate buffer was added to LDL (100 μg LDL protein/ml) which EDTA was removed from the aqueous solution, additionally thereto CuSO4 10 μM as oxidant was added. […] Group to which CUSO4 was not added was used as blank group. Group to which CUSO4 and vehicle were added in place of test compounds was used as control group. The mixture was incubated at 37° C. for 18 hours. EDTA […] was added to the mixture to terminate the oxidation reaction.
# As shown in example 4, Cu^2+ facilitates the oxidation reaction to produce malondialdehyde (MDA), lipid peroxidation product. The MDA quantification is achieved by reacting samples with 2-thiobarbituric acid (TBA) and measuring the absorbance at 530 nm. Also, 1,1,3,3-tetramethoxypropane purchased from sigma was used as standard materials. Inhibitory effect against lipid peroxidation of the test compounds was measured by MDA (nmol) to protein (mg). Decrease of MDA to that of control group was calculated.
# [2] = tested on: A7r5 (Rat thoracic aorta smooth muscle cell line, ATCC); experiment: Inhibitory effect on accumulation of reactive oxygen species induced by hydrogen peroxide (DCF fluorescence); format: cell-based; details: hydrogen peroxide 50 μM
# Protocol: To measure reactive oxygen species, H2DCFDA (2′,7′-dichlorodihydrofluorescein diacetate, Molecular Probes, Eugene, Oreg., USA) was used. If H2DCFDA, nonpolar material is transferred through cell membrane, it is changed to H2DCF (2′,7′-dichlorodihydrofluorescein), material impermeable to membrane by intracellular esterase. H2DCF is changed to high fluorescent DCF (2′,7′-dichlorofluorescein) by low fluorescent peroxidated oxygen or hydroxyl radical. H2DCFDA solution (10 mM) dissolved in DMSO was used before the experiment. A7r5 (Rat thoracic aorta smooth muscle cell line, ATCC), as smooth muscle cell was incubated in DMEM (Dulbecco's Modified Eagle's Medium) containing 10% of FBS (fetal bovine serum). Thereafter, the cell was incubated in 48 well plate for two days, then was incubated in serum-free DMEM for 24 hours to use for experiment. Krebs-linger buffer (Krebs-Ringer (K-R), 99.01 mM NaCl, 4.69 mM KCl, 1.87 mM CaCl2, 1.2 mM MgSO4, 1.03 mM K2HPO4, 25 mM NaHCO3, 20 mM Hepes, 11.1 mM D-glucose, pH 7.4) was used for washing and process of cell monolayers. After cell monolayers media was removed, each of test compounds (0.2 ml) was pre-treated to media, then incubated at 37° C. for 15 min. Final concentration was 50 μM, hydrogen peroxide was added. The media was allowed to stand for 30 min. The said solution from media was removed. The media was washed one time. H2DCFDA 20 μM was added to the media. The media was allowed to stand for 30 min. the media was washed two times. Thereafter, oxidation of H2DCFDA was measured by Fluorescence reader (FL600, Biotech Instruments, 485 nm excitation, 530 nm emission).
# isolated rat aorta = experiment: Vasodilating effect on blood vessel excised from rats (methoxamine-constricted aorta); details: isolated rat aorta constricted with methoxamine (3 μM); read-out: Concentration for inhibition of constriction induced by methoxamine in rat arota (IC50)
# Summary of the method: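 Endothelium-denuded rat thoracic aortic rings (3 mm) in Krebs-Henseleit buffer, 37 °C, carbogen, 2 g resting tension, primed twice with 10^−5 M phenylephrine. After maximal contraction with 3×10^−6 M methoxamine, compounds added cumulatively at 1, 3, 10, 30 μM. IC50 = concentration giving 50% relaxation of maximal constriction, by linear regression.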
compound,measurement,setting,value
"COC(OC)[C@@]1(C)Oc2ccc(N)cc2[C@H](N(Cc2nnn(C)n2)c2ccc(Cl)cc2)[C@H]1O [Example 11, (2S,3R,4S)-6-amino-4-[N-(4-chlorophenyl)-N-(2-methyl-2H-tetrazol-5-ylmethyl)amino]-3-hydroxy-2-methyl-2-dimethoxymethyl-3,4-dihydro-2H-1-benzopyran]",Inhibitory effect(%) against lipid peroxidation induced by copper,[1]; Addition 10^−5 M,63.9%
same,Inhibitory effect(%) against lipid peroxidation induced by copper,[1]; Addition 10^−6 M,54.9%
same,Inhibitory effect(%) against lipid peroxidation induced by copper,[1]; Addition 10^−7 M,27.3%
same,Inhibitory(%) against reactive oxygen species accumulation,[2]; addition 3 μM,6%
same,Inhibitory(%) against reactive oxygen species accumulation,[2]; addition 10 μM,82%
same,Inhibitory(%) against reactive oxygen species accumulation,[2]; addition 30 μM,124%
same,pIC50,isolated rat aorta,< 4.52

# Source: patent US7414068B2, “Benzopyran derivatives substituted with secondary amines including tetrazole, method for the preparation thereof and pharmaceutical compositions containing them” (Dongbu Hannong Chemical Co., Ltd., priority 2002, dated 2008)
